These are literature values, as cited in US6444469B1, “Methods for altering the rate of plant development and plants obtained therefrom” (Yale University, priority 1996, dated 2002).

Each structure is given as a SMILES string.

For the data set, the system named is late-flowering strains and mutants of Arabidopsis. The following applies: treatment of seeds; some late-flowering strains and mutants.

With `Nc1ncn([C@@H]2O[C@H](CO)[C@@H](O)[C@H]2O)c(=O)n1` [Line 5-AzaC, 5-azacytidine], the Effect on flowering result is reported as “early flowering”.
